Earlier results as cited in patent publication US20240130675A1, “Methods for Treating Autism Spectrum Disorder” (The General Hospital Corporation, priority 2021, published 2024).
Where a name gives a salt, the structure may show the parent alone.

Assays:
[1] = test system: ASD symptoms; details: RCT; cited from earlier work
[2] = test system: ASD children; details: cited from earlier work
[3] = test system: youth with ASD; details: cited from earlier work
[4] = test system: autism; details: RUPP Autism Network study; cited from earlier work
[5] = test system: older adolescents and young adults with ASDs; details: cited from earlier work
[6] = test system: ASD; details: in vivo; cited from earlier work
[7] = test system: ASD symptoms; details: 5-19 year-olds, four weeks; only reflected in CGI, not in ABC-CV; cited from earlier work

In the case of `Nc1nnc(-c2cccc(Cl)c2Cl)c(N)n1` [lamotrigine], the “Improvements vs placebo on Autism Behavior Checklist, Aberrant Behavior Checklist, Vineland, PL-ADOS, CARS” value [1] is given as “no significant differences in improvements”.

In the case of `CC(=O)N[C@@H](CS)C(=O)O` [NAC, N-Acetylcysteine], the “ABC irritability subscale score vs placebo” value [2] is given as “significant improvement” and the Social impairment [3] is given as “no significant impact on social impairment”.

In the case of `Cc1nc2n(c(=O)c1CCN1CCC(c3noc4cc(F)ccc34)CC1)CCCC2` [risperidone], the “Response rate, treatment group” value [4] is listed as 69.4%.

In the case of `N[C@@H]1CONC1=O` [D-Cycloserine], the “Stereotypic symptoms, Aberrant Behavior Checklist subscale 3” value [5] is listed as “improved stereotypic symptoms” and the “Social Responsiveness Scale and Aberrant Behavior Checklist” value [6] is listed as “statistically and clinically significant improvement”.

In the case of `NC12CC3CC(CC(C3)C1)C2` [amantadine hydrochloride], the “ASD symptoms vs placebo” value [7] is given as “improvement in ASD symptoms”.
